# Measurements as given in patent US6737383B1, “Herbicidal oxadiazolidines” (priority 1999, dated 2004).
# Experiments:
# crabgrass = assay: Test B pre/postemergence crabgrass; format: in vivo, Digitaria sanguinalis
# In short: (§1)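 Herbicidal effect was estimated by eye on a ten-point control scale after plants spent twelve to sixteen days in a greenhouse following soil or foliar treatment. Foliar sprays targeted plants at one to four leaves; all doses were formulated in a non-phytotoxic solvent with surfactant.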
# morningglory = assay: Test B pre/postemergence morningglory; format: in vivo, Ipomoea hederacea
# In short: as §1
# giant foxtail = assay: Test B pre/postemergence giant foxtail; format: in vivo, Setaria faberii
# In short: as §1
# blackgrass = assay: Test B pre/postemergence blackgrass; format: in vivo, Alopecurus myosuroides
# In short: as §1
# purple nutsedge = assay: Test B pre/postemergence purple nutsedge; format: in vivo, Cyperus rotundus
# In short: as §1
# pigweed = assay: Test B pre/postemergence pigweed; format: in vivo, Amaranthus retroflexus
# In short: as §1
# corn = assay: Test B pre/postemergence corn; format: in vivo, Zea mays
# In short: as §1
# bedstraw = assay: Test B pre/postemergence bedstraw; format: in vivo, Galium aparine
# In short: as §1
# rape = assay: Test B pre/postemergence rape; format: in vivo, Brassica napus
# In short: as §1
# wild oat = assay: Test B pre/postemergence wild oat; format: in vivo, Avena fatua
# In short: as §1
# cocklebur = assay: Test B pre/postemergence cocklebur; format: in vivo, Xanthium strumarium
# In short: as §1
# velvetleaf = assay: Test B pre/postemergence velvetleaf; format: in vivo, Abutilon theophrasti
# In short: as §1
# surinam grass = assay: Test B pre/postemergence surinam grass; format: in vivo, Brachiaria decumbens
# In short: as §1
# wheat = assay: Test B pre/postemergence wheat; format: in vivo, Triticum aestivum
# In short: as §1
# soybean = assay: Test B pre/postemergence soybean; format: in vivo, Glycine max
# In short: as §1
# sugar beet = assay: Test B pre/postemergence sugar beet; format: in vivo, Beta vulgaris
# In short: as §1
# [1] = Postemergence, Rate 62 g/ha, scale 0 to 10, 0 is no effect, 10 is complete control
# [2] = Postemergence, Rate 125 g/ha, scale of 0 to 10 where 0 is no effect and 10 is complete control
# [3] = Postemergence, Rate 250 g/ha, scale of 0 to 10, 0 is no effect, 10 is complete control
# [4] = Preemergence, Rate 62 g/ha, scale of 0 to 10 where 0 is no effect and 10 is complete control
# [5] = Preemergence, Rate 125 g/ha, scale of 0 to 10 where 0 is no effect and 10 is complete control
# [6] = Preemergence, Rate 250 g/ha, scale 0 to 10 (0 no effect, 10 complete control)
# [7] = Preemergence, Rate 500 g/ha, scale of 0 to 10 where 0 is no effect and 10 is complete control
# [8] = Rate 500 g/ha, Postemergence, scale 0 to 10, 0 is no effect, 10 is complete control
structure (smiles),measurement,setting,value
CC(C)N(C(=O)n1oc(=O)n(Cc2nnc(Cl)s2)c1=O)c1ccccc1 [Compound 654],"Plant response rating, Crabgrass",crabgrass; [1],0
same,Crabgrass plant response rating,crabgrass; [2],0
same,Crabgrass plant response rating,crabgrass; [3],2
same,Crabgrass plant response rating,crabgrass; [4],0
same,Crabgrass plant response rating,crabgrass; [5],3
same,"Plant response rating, Crabgrass",crabgrass; [6],7
same,"Plant response rating, Crabgrass",crabgrass; [7],9
same,Crabgrass plant response rating,crabgrass; [8],7
same,"Plant response rating, Morningglory",morningglory; [1],3
same,Morningglory plant response rating,morningglory; [2],4
same,Morningglory plant response rating,morningglory; [3],10
same,Morningglory plant response rating,morningglory; [4],0
same,Morningglory plant response rating,morningglory; [5],0
same,"Plant response rating, Morningglory",morningglory; [6],0
same,"Plant response rating, Morningglory",morningglory; [7],0
same,Morningglory plant response rating,morningglory; [8],10
same,"Plant response rating, Giant foxtail",giant foxtail; [1],0
same,Giant foxtail plant response rating,giant foxtail; [2],2
same,Giant foxtail plant response rating,giant foxtail; [3],5
same,Giant foxtail plant response rating,giant foxtail; [4],0
same,Giant foxtail plant response rating,giant foxtail; [5],6
same,"Plant response rating, Giant foxtail",giant foxtail; [6],9
same,"Plant response rating, Giant foxtail",giant foxtail; [7],9
same,Giant foxtail plant response rating,giant foxtail; [8],7
same,"Plant response rating, Blackgrass",blackgrass; [1],0
same,Blackgrass plant response rating,blackgrass; [2],0
same,Blackgrass plant response rating,blackgrass; [3],0
same,Blackgrass plant response rating,blackgrass; [4],0
same,Blackgrass plant response rating,blackgrass; [5],0
same,"Plant response rating, Blackgrass",blackgrass; [6],2
same,"Plant response rating, Blackgrass",blackgrass; [7],7
same,Blackgrass plant response rating,blackgrass; [8],0
same,"Plant response rating, Nutsedge",purple nutsedge; [1],0
same,Nutsedge plant response rating,purple nutsedge; [2],0
same,Nutsedge plant response rating,purple nutsedge; [4],0
same,"Plant response rating, Nutsedge",purple nutsedge; [6],0
same,"Plant response rating, Nutsedge",purple nutsedge; [7],0
same,"Plant response rating, Redroot pigweed",pigweed; [1],0
same,Redroot pigweed plant response rating,pigweed; [2],0
same,Redroot pigweed plant response rating,pigweed; [4],0
same,Redroot pigweed plant response rating,pigweed; [5],0
same,"Plant response rating, Redroot pigweed",pigweed; [6],3
same,"Plant response rating, Redroot pigweed",pigweed; [7],5
same,Redroot pigweed plant response rating,pigweed; [8],0
same,"Plant response rating, Corn",corn; [1],0
same,Corn plant response rating,corn; [2],0
same,Corn plant response rating,corn; [3],0
same,Corn plant response rating,corn; [4],0
same,Corn plant response rating,corn; [5],0
same,"Plant response rating, Corn",corn; [6],0
same,"Plant response rating, Corn",corn; [7],0
same,Corn plant response rating,corn; [8],0
same,Bedstraw plant response rating,bedstraw; [3],0
same,Bedstraw plant response rating,bedstraw; [4],0
same,Bedstraw plant response rating,bedstraw; [5],0
same,"Plant response rating, Bedstraw",bedstraw; [6],0
same,"Plant response rating, Bedstraw",bedstraw; [7],0
same,Bedstraw plant response rating,bedstraw; [8],0
same,"Plant response rating, Rape",rape; [1],0
same,Rape plant response rating,rape; [2],0
same,Rape plant response rating,rape; [4],0
same,Rape plant response rating,rape; [5],0
same,"Plant response rating, Rape",rape; [6],0
same,"Plant response rating, Rape",rape; [7],0
same,Rape plant response rating,rape; [8],0
same,"Plant response rating, Wild oats",wild oat; [1],0
same,Wild oats plant response rating,wild oat; [2],0
same,Wild oats plant response rating,wild oat; [4],0
same,Wild oats plant response rating,wild oat; [5],0
same,"Plant response rating, Wild oats",wild oat; [6],0
same,"Plant response rating, Wild oats",wild oat; [7],2
same,Wild oats plant response rating,wild oat; [8],0
same,"Plant response rating, Cocklebur",cocklebur; [1],0
same,Cocklebur plant response rating,cocklebur; [2],0
same,Cocklebur plant response rating,cocklebur; [3],0
same,Cocklebur plant response rating,cocklebur; [4],0
same,Cocklebur plant response rating,cocklebur; [5],0
same,"Plant response rating, Cocklebur",cocklebur; [6],0
same,"Plant response rating, Cocklebur",cocklebur; [7],0
same,Cocklebur plant response rating,cocklebur; [8],0
same,"Plant response rating, Velvetleaf",velvetleaf; [1],0
same,Velvetleaf plant response rating,velvetleaf; [2],0
same,Velvetleaf plant response rating,velvetleaf; [4],0
same,Velvetleaf plant response rating,velvetleaf; [5],0
same,"Plant response rating, Velvetleaf",velvetleaf; [6],0
same,"Plant response rating, Velvetleaf",velvetleaf; [7],0
same,Velvetleaf plant response rating,velvetleaf; [8],0
same,"Plant response rating, B. signalgrass",surinam grass; [1],0
same,"Plant response rating, B. signalgrass",surinam grass; [2],0
same,B. signalgrass plant response rating,surinam grass; [3],0
same,B. signalgrass plant response rating,surinam grass; [4],0
same,B. signalgrass plant response rating,surinam grass; [5],0
same,"Plant response rating, B. signalgrass",surinam grass; [6],0
same,"Plant response rating, B. signalgrass",surinam grass; [7],7
same,B. signalgrass plant response rating,surinam grass; [8],0
same,"Plant response rating, Wheat",wheat; [1],0
same,Wheat plant response rating,wheat; [2],0
same,Wheat plant response rating,wheat; [4],0
same,Wheat plant response rating,wheat; [5],0
same,"Plant response rating, Wheat",wheat; [6],0
same,"Plant response rating, Wheat",wheat; [7],0
same,Wheat plant response rating,wheat; [8],0
same,"Plant response rating, Soybean",soybean; [1],0
same,Soybean plant response rating,soybean; [2],0
same,Soybean plant response rating,soybean; [4],0
same,Soybean plant response rating,soybean; [5],0
same,"Plant response rating, Soybean",soybean; [6],0
same,"Plant response rating, Soybean",soybean; [7],0
same,Soybean plant response rating,soybean; [8],0
same,"Plant response rating, Sugarbeets",sugar beet; [1],0
same,Sugarbeets plant response rating,sugar beet; [2],0
same,Sugarbeets plant response rating,sugar beet; [4],0
same,Sugarbeets plant response rating,sugar beet; [5],0
same,"Plant response rating, Sugarbeets",sugar beet; [6],0
same,"Plant response rating, Sugarbeets",sugar beet; [7],0
same,Sugarbeets plant response rating,sugar beet; [8],0
